Several values for one entry are separate records, joined by “and”; a condition that tells them apart may be missing. Equal values may be shown once.
Key:
[1] = test system: Jurkat human leukemia T cells; assay: Inhibition of Jurkat human leukemia T cell proliferation (MTT reduction); type: cell-based; details: for % INHIBITION of Jurkat human leukemia T cell proliferation: 100 μg/ml sequence, 48 h, 2.5×10^5 cells/ml; for proliferation, cell cycle arrest and apoptosis of Jurkat T cells (summary in words): M. phlei murA derived sequences
Outline: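 Jurkat cells at 2.5×10^5 cells/ml exposed to 100 μg/ml of 2–45-base A/C/G/T sequences (0 μg/ml control) for 48 h, 37° C, 5% CO2. Viability by MTT reduction read at 570 nm.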

[2] = test system: HL-60 human promyelocytic leukemia cells; assay: Inhibition of HL-60 cell proliferation (MTT); type: cell-based; details: 100 μg/ml, 48 h
Method: (§1) Cells were seeded in 6 (1 ml/well), 24 (0.5 ml/well) or 96 (0.1 ml/well) well flat-bottom microplates and were maintained at 37° C. in a 5% CO2 atmosphere. Unless stated otherwise, 2.5×10^5 cells/ml were incubated with 0 μg/ml (control) and 100 μg/ml (treated) of 2 to 45 base sequences containing A, C, G and T for 48 h.
(§2) Cell proliferation was measured using dimethylthiazol-diphenyl-tetrazolium (MTT) reduction (Mosman et al. J. Immunol. Methods 65:55, 1983). MTT was measured at a wavelength of 570 nm using a multiplate spectrophotometer reader (ELX800, Bio-TEK Instruments Inc., Winooski, Vt.).
HL-60 promyelocytic leukemia cells are a p53 mutated human suspension tumor model. HL-60 cells were incubated with 6 base GT sequences (Table 6).

[3] = test system: MCF-7 human breast cancer cells; assay: Inhibition of MCF-7 cell proliferation (MTT); type: cell-based; details: 100 μg/ml, 48 h, 5×10^5 cells/ml
Method: as §1, §2
MCF-7 human breast cancer cells are a caspase 3 negative, estrogen-dependent human solid tumor model. MCF-7 cells (5×10^5 cells/ml) were incubated with 3 and 6 base GT sequences (Table 7).

[4] = test system: PC-3 human prostate cancer cells; assay: Inhibition of PC-3 cell proliferation (MTT); type: cell-based; details: 100 μg/ml, 48 h, 5×10^5 cells/ml
Method: as §1, §2
PC-3 prostate cancer cells are a p53 mutated, androgen-independent human solid tumor model. PC-3 cells (5×10^5 cells/ml) were incubated with 3 and 6 base GT sequences (Table 8).

[5] = test system: LNCaP human prostate cancer cells; assay: Inhibition of LNCaP cell proliferation (MTT); type: cell-based; details: 100 μg/ml, 48 h, 5×10^5 cells/ml
Method: as §1, §2
LNCaP prostate cancer cells are a TGF-beta 1 receptor negative, […], metastatic human solid tumor model. LNCaP cells (5×10^5 cells/ml) were incubated with 6 base GT sequences (Table 9).

[6] = test system: THP-1 human acute monocytic leukemia cells; assay: Inhibition of THP-1 cell proliferation (MTT); type: cell-based; details: 100 μg/ml, 48 h, 1.6×10^6 cells/ml
Method: as §1, §2
THP-1 acute monocytic leukemia cells are a p53 null human suspension tumor model. THP-1 cells (1.6×10^6 cells/ml) were incubated with 6 base GT sequences (Table 10).

[7] = test system: A20 murine B leukemia cells; assay: Inhibition of A20 cell proliferation (MTT); type: cell-based; details: 100 μg/ml, 48 h
Method: as §1, §2
A20 murine leukemia B cells are a suspension tumor model. A20 murine leukemia B cells were incubated with 6 base GT sequences (Table 19).

[8] = test system: THP-1 human acute monocytic leukemia cells; assay: Cytokine production by THP-1 cells (ELISA); type: cell-based; details: THP-1, 1×10^6 cells, 100 μg/ml, 48 h; for ↑ IL-12 (fold increase treated vs control cells): p70 complex and free p40
Outline: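 1×10^6 cells exposed to 100 μg/ml of each oligonucleotide sequence for 48 h at 37° C in 5% CO2, unless stated otherwise. Cytokines quantified in culture supernatant by ELISA, IL-12 assay detecting both p70 and free p40; values are fold increase over untreated control cells.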

[9] = test system: human peripheral blood mononuclear cells; assay: Cytokine production by human PBMC (ELISA); type: cell-based; details: PBMC of 7 healthy humans, 100 μg/ml, 48 h
Outline: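 PBMC from 7 healthy donors, Ficoll-isolated; 1×10^6 cells incubated with 100 μg/ml oligonucleotide sequence for 48 h at 37 °C, 5% CO2. IL-1beta, IL-6, IL-10, IL-12 (p70 plus free p40) and TNF-alpha measured by ELISA in supernatant, expressed as fold increase over control cells.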

chimpanzee PBMCs = assay: Cytokine production by chimpanzee PBMC (ELISA); type: cell-based; details: PBMC of 4 healthy chimpanzees, 100 μg/ml, 48 h
Outline: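 PBMCs from 4 healthy chimpanzees (1×10^6 cells) were incubated 48 h at 37 °C, 5% CO2 with 100 μg/ml of each 6-base sequence. Supernatant IL-10, IL-12 (p70 plus free p40) and TNF-alpha were measured by ELISA. Values are fold increase over untreated control cells.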

rhesus monkey PBMCs = assay: Cytokine production by rhesus monkey PBMC (ELISA); type: cell-based; details: PBMC of 4 healthy rhesus monkeys, 100 μg/ml, 48 h
Outline: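 Peripheral blood mononuclear cells taken from 4 healthy rhesus monkeys were cultured at 1×10^6 cells with 100 μg/ml of each test sequence for 48 h at 37° C. under 5% CO2. Cytokine levels in 100 μl of supernatant were quantified in pg/ml by commercial ELISA and reported as fold increase over untreated control cells.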

[10] = test system: Jurkat human leukemia T cells; assay: Cell cycle stage in Jurkat cells (propidium iodide flow cytometry); type: cell-based; details: Jurkat, M. phlei murA derived sequences
Outline: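 Exponentially growing Jurkat cells were exposed for 24 h to 2–45-base A/C/G/T oligonucleotides, or at 1×10^6 cells/ml to 6-base GT and AC strands, alone (heated 10 min, 65 °C) or hybridized 1:1. Detergent-, trypsin-, RNase- and spermine-treated nuclei were propidium iodide-stained and scored for G0/G1, early/mid/late S and G2/M by doublet-discriminating flow cytometry.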

[11] = test system: Jurkat human leukemia T cells; assay: Apoptosis by phosphatidylserine/annexin V-FITC flow cytometry; type: cell-based; details: M. phlei murA derived sequences
Method: The redistribution of phosphatidylserine in the plasma membrane during apoptosis was measured by flow cytometry using FITC-conjugated annexin V (BD Pharmingen, San Diego, Calif.). NuMA release into the supernatant was determined using a commercial ELISA kit (Oncogen/Calbiochem, Cambridge, Mass.).
Jurkat human leukemia T cells were incubated with 50 μM of 3, 4, 5, 6 and 7 GT base sequences, a 5 base ACGT sequence, 6 base AG, GG, AGT and CGT sequences and a 7 base GG sequence. […]
Jurkat human leukemia T cells were incubated with GT-rich or AC-rich sequences derived from the murA gene of Mycobacterium phlei (GenBank: Accession Number X99776). Inhibition of proliferation was measured by the reduction of MTT as in Example 3, cell cycle arrest was detected by flow cytometry using propidium iodide as in Example 21 and apoptosis was evaluated by flow cytometry using annexin-V-FITC as in Example 23.

caspase 3 [12] = assay: Active caspase 3 by FITC-conjugated antibody flow cytometry; type: cell-based, human; details: Jurkat, 72 h, 100 μg/ml, cytometric (FIG. 2A)
Method: (§3) To determine caspase activation, control and treated cells are washed, fixed, permeabilized and incubated with an FITC-conjugated antibody that recognizes the active form of the caspase (Pharmingen, San Diego, Calif.) using the conditions recommended by the manufacturer. Fluorescence associated with active caspase 3 is analyzed by flow cytometry on a FACSCALIBUR using the program CellQUEST (Becton Dickinson). Alternatively, caspase activation is determined colorimetrically using an assay based on the cleavage of a caspase-specific peptide conjugated to the color reporter molecule p-nitroanilide, which can be quantitated spectrophotometrically at a wavelength of 405 nm.
(§4) Jurkat T cell leukemia cells were incubated for 72 h with 33 base GT SEQ ID NO:66; 11 base GT SEQ ID NO:81 (bases 1-11 of GT SEQ ID NO:66), 11 base GT SEQ ID NO:82 (bases 12-22 of GT SEQ ID NO:66), 11 base GT SEQ ID NO:83 (bases 23-33 of GT SEQ ID NO:66) and 15 base ACG SEQ ID NO:67. Active caspase 3 (17-22 kDa) was determined using FITC conjugated antibody (Clone: C92-605) as in Example 28.

caspase 3 [13] = assay: Caspase 3 activation, colorimetric (p-nitroanilide peptide cleavage); type: cell-based, human; details: Jurkat, 72 h, 100 μg/ml
Method: as §3, §4
Caspase 3 activation also was determined colorimetrically as in Example 28.
Jurkat T cell leukemia cells were incubated for 72 h with 6 base GT SEQ ID NO:25. Caspase 3 activation was determined colorimetrically as in Example 28.

| Sequence | % INHIBITION of Jurkat human leukemia T cell proliferation [1] | % INHIBITION of HL-60 human promyelocytic leukemia cell proliferation [2] | % INHIBITION of MCF-7 human breast cancer cell proliferation [3] | % INHIBITION of PC-3 human prostate cancer cell proliferation [4] | % INHIBITION of LNCaP human prostate cancer cell proliferation [5] | % INHIBITION of THP-1 human acute monocytic leukemia cell proliferation [6] | % INHIBITION of A20 murine B leukemia cell proliferation [7] | ↑ IL-6 (fold increase treated vs control cells) [8] | ↑ IL-12 (fold increase treated vs control cells) [8] | IL-1 beta fold increase: mean +/− SD [9] | IL-6 fold increase: mean +/− SD [9] | IL-10 fold increase: mean +/− SD [9] | IL-12 fold increase: mean +/− SD [9] | IL-10 fold increase: mean +/− SD (chimpanzee PBMCs) | IL-12 fold increase: mean +/− SD (chimpanzee PBMCs) | TNF-alpha fold increase: mean +/− SD (chimpanzee PBMCs) | IL-10 fold increase: mean +/− SD (rhesus monkey PBMCs) | IL-12 fold increase: mean +/− SD (rhesus monkey PBMCs) | TNF-alpha fold increase: mean +/− SD (rhesus monkey PBMCs) | proliferation, cell cycle arrest and apoptosis of Jurkat T cells (summary in words) [1] | further results |
| --- | --- | --- | --- | --- | --- | --- | --- | --- | --- | --- | --- | --- | --- | --- | --- | --- | --- | --- | --- | --- | --- |
| GGTGGG [SEQ ID NO:24] | 48% | 18% | 41% | 26% | 17% | 6% | 9% | 6.9x | 3.7x | 0.9 +/− 0.1 fold increase | 15.9 +/− 14.9 fold increase | 2.4 +/− 2.9 fold increase | 2.3 +/− 1.6 fold increase | 2.9 +/− 1.5 fold increase | 14.3 +/− 9.1 fold increase | 11.9 +/− 7.0 fold increase | 1.0 +/− 0.1 fold increase | 11.2 +/− 4.8 fold increase | 14.5 +/− 5.4 fold increase |  |  |
| GGTTTTGTTTG (unmodified DNA) [SEQ ID NO:82] | 20% |  |  |  |  |  |  |  |  |  |  |  |  |  |  |  |  |  |  | inhibited proliferation of, induced cell cycle arrest in and induced apoptosis of Jurkat T cells | cell cycle arrest [10]: End SE; % at cells in apoptosis [11]: 25%; processing of inactive pro-caspase 3 to active caspase 3 (caspase 3 [12]): induced processing of inactive pro-caspase 3 to active caspase 3; caspase 3 activity greater than in control cells (caspase 3 [13]): 100% |
| GTGTGTTTGGT (unmodified DNA) [SEQ ID NO:81] | 22% |  |  |  |  |  |  |  |  |  |  |  |  |  |  |  |  |  |  | inhibited proliferation of, induced cell cycle arrest in and induced apoptosis of Jurkat T cells | % at cells in apoptosis [11]: 23%; processing of inactive pro-caspase 3 to active caspase 3 (caspase 3 [12]): induced processing of inactive pro-caspase 3 to active caspase 3; caspase 3 activity greater than in control cells (caspase 3 [13]): 77% |
| TGTGTG [SEQ ID NO:9] | 37% and 36% | 7% | 6% | 16% | −9% | 0% | 22% | 4.0x | 1.8x | 1.2 +/− 0.4 fold increase | 8.3 +/− 12.8 fold increase | 1.0 +/− 0.1 fold increase | 2.7 +/− 2.6 fold increase | 2.3 +/− 1.3 fold increase | 13.5 +/− 8.9 fold increase | 11.3 +/− 6.9 fold increase | 1.1 +/− 0.2 fold increase | 10.6 +/− 4.2 fold increase | 14.3 +/− 6.3 fold increase |  |  |
| TTGTTTTTTTTG (unmodified DNA) [SEQ ID NO:83] | 21% |  |  |  |  |  |  |  |  |  |  |  |  |  |  |  |  |  |  | inhibited proliferation of, induced cell cycle arrest in and induced apoptosis of Jurkat T cells | % at cells in apoptosis [11]: 16%; processing of inactive pro-caspase 3 to active caspase 3 (caspase 3 [12]): induced processing of inactive pro-caspase 3 to active caspase 3; caspase 3 activity greater than in control cells (caspase 3 [13]): 60% |
| TTTGTT [SEQ ID NO:23] | 31% | 13% | 7% | 14% | 14% | 8% | 5% | 4.9x | 3.5x | 1.0 +/− 0.1 fold increase | 11.8 +/− 9.0 fold increase | 1.0 +/− 0.1 fold increase | 1.1 +/− 0.3 fold increase | 1.5 +/− 0.6 fold increase | 12.9 +/− 8.2 fold increase | 9.0 +/− 5.5 fold increase | 1.0 +/− 0.1 fold increase | 6.7 +/− 3.6 fold increase | 4.4 +/− 3.8 fold increase |  |  |

— patent US20070213291A1, “Therapeutically useful synthetic oligonucleotides” (priority 1999, published 2007)
